Measurements from patent publication US20100189813A1, “Cidal formulations and methods of use” (priority 2006, published 2010).

Key:
aerial bacteria = assay: Agar growth media plates left open to the atmosphere for 6 hours (disinfectant efficacy), bacteria; assay type: cell-based; details: copper sulphate at 5%; plates open 6 hours
Protocol: (§1) 1. The Unformulated composition containing 5 weight percent of copper sulphate in an inert carrier was added directly to growth media, namely, Agar, in order to evaluate it's efficacy as a disinfectant. 2. The same solution was added to bacteria and its growth was monitored by optical density readings as a function of time. 3. The same solution alone or in combination with a detergent was added to bacteria or fungi and incubated for 10 minutes or 60 minutes and the incubation mix was plated on to agar growth media in order to estimate survival.
(§2) a. The Unformulated composition at different concentrations was added to live bacterial agar media and the agar plates were exposed to the atmosphere by keeping the Petri plates open to the atmosphere for 6 hours. By doing this it was expected to allow aerial bacteria to grow in the plates.
(§3) Control plates without the Unformulated composition contained confluent colonies of bacteria (infinite) and fungi.

fungi = assay: Agar growth media plates left open to the atmosphere for 6 hours (disinfectant efficacy), fungi; assay type: cell-based; details: copper sulphate at 5%; plates open 6 hours
Protocol: as §1, §2, §3

Anopheles mosquitoes = assay: Anopheles mosquito larvae survivorship on exposure to copper; assay type: in vivo
From the text: A solution in water of copper sulphate pentahydrate at 5 weight percent was used to treat Anopheles mosquitoes. The mosquitoes were wild caught and they were not separated by larval stage so there is some variability in the response to the test. The data is based upon 1000 larvae per treatment. Amounts of copper were used at 0.37 ppm, 0.88 ppm, 1.47 ppm, and 8.4 ppm. […] The Y-axis is the percentage of survivorship and the X-axis is the number of days of exposure.
The tests were repeated wherein a copper compound in inert carrier was treated with a detergent as an additive to determine if the additive increased the efficacy of the copper. […] The first control is FIG. 2, Stage 1 larvae, the duplicate control, Stage 1 larvae, is FIG. 3 wherein, in both Figures, the Y-axis is the percentage of survivorship and the X-axis is the number of days of exposure.
Kathon was added at 0.02 weight percent. […] The Y-axis is the percentage of survivorship and the X-axis is the number of days of exposure.
The copper was used at the 0.25 ppm level. […] The Y-axis is the percentage of survivorship and the X-axis is the number of days of exposure.

E. Coli bacteria = assay: Incubation for 10 or 60 minutes, then plating on agar to estimate survival, bacteria; assay type: cell-based; details: detergent alone
Protocol: Three different types of experiments were conducted in order to assess the efficacy of an inventive solution on E. Coli bacteria and fungi.
as §1
c. Bacteria with the Unformulated composition was incubated for 10 minutes or 60 minutes before plating them. […] Because of the closeness of the data points, the inventors herein would point out that the top line is the control, the next set of lines lower are constituted of 0.1, 0.2, 0.3, 0.4, 0.5 of ET and 1 ml Matrix, while the bottom set of lines are constituted of 2 ml Matrix, 3 ml Matrix, 3 ml Matrix, 4 ml Matrix, and 5 ml of Matrix.
4. The effect of adding detergents, that is, sodium dodecyl sulfate to the Unformulated composition.
The detergent alone allowed growth up to a concentration of 0.2%. […]

Compound	bacterial growth on plates (aerial bacteria)	fungal growth on plates (fungi)	survivorship (Anopheles mosquitoes; 0.37 ppm copper, wild caught larvae not separated by larval stage, 1000 larvae per treatment) [%]	no-effect dose (Anopheles mosquitoes; copper, first part of the experiment, no detergent) [ppm]	death of larvae (Anopheles mosquitoes; more than 0.8 ppm copper (0.88, 1.47, 8.4 ppm tested), by day 3, wild caught larvae)	concentration at which bacterial growth was still allowed (E. Coli bacteria) [%]
O.O.O.O.O.O=S(=O)([O-])[O-].[Cu+2] [copper sulphate pentahydrate]	allowed bacterial growth	allowed no fungal growth	~100	0.37	died by day 3	–
CCCCCCCCCCCCOS(=O)(=O)[O-].[Na+] [sodium dodecyl sulfate]	–	–	–	–	–	≤ 0.2
